For one assay, the target named is T1, h-TGR5 (Homo sapiens, UniProt Q8TDU6).
T1 sequence (Q8TDU6 1-330): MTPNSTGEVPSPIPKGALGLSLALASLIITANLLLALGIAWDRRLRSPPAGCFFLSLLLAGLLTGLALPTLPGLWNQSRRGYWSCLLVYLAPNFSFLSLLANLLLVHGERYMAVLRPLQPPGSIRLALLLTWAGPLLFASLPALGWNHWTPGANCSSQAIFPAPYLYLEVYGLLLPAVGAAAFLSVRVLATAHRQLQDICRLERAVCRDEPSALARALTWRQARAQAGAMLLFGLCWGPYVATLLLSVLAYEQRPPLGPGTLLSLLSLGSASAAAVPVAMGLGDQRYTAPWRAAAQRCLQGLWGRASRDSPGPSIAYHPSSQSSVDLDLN
Briefly: TGR5 cAMP Assay using Cisbio cAMP Dynamic 2 htrf assay kit. The class given is cell-based. To be noted: hTGR5CRE-luc HEK 293 cells.

In the next assay the target is T2, human TGR5 (h-TGR5) (Homo sapiens, UniProt Q8TDU6).
T2 sequence (Q8TDU6 1-330): T1 sequence (Q8TDU6 1-330)
Briefly: TGR5/CRE-Luciferase Assay. The format is cell-based. To be noted: HEK 293 hTGR5/CRE-Luc cells, 6 hours incubation, read-out: CRE-Luc Agonist (EC50). The method in brief:
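HEK 293 CRE-Luciferase cells stably expressing the receptor, plated in DMEM 18-20 h before assay, then exposed to serially diluted compounds (DMEM with 5% DMSO) for 6 h. Luciferase read-out after lysis; EC50 from dose-response.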

A value given as a limit tells only on which side of the number the result lay.

Take `COc1cc(C(C)(C)c2cnc(SCc3cc(S(=O)(=O)N(CCC[N+](C)(C)C)CCC[N+](C)(C)C)c(F)cc3Cl)n2-c2ccc(F)cc2)ccc1Cl` [Example 6p, 3,3′-({[4-chloro-5-({[5-{1-[4-chloro-3-(methyloxy)phenyl]-1-methylethyl}-1-(4-fluorophenyl)-1H-imidazol-2-yl]thio}methyl)-2-fluorophenyl]sulfonyl}imino)bis(N,N,N-trimethylpropan-1-aminium)]: the EC50 at h-TGR5 and on human TGR5 (h-TGR5) was 100 to 1000 nM throughout.
As for `COc1cc(C(C)(C)c2cnc(SCc3cc(S(=O)(=O)NCCC[N+](C)(C)C)c(Cl)cc3F)n2-c2ccc(F)cc2)ccc1Cl` [Example 6q, 3-({[2-chloro-5-({[5-{1-[4-chloro-3-(methyloxy)phenyl]-1-methylethyl}-1-(4-fluorophenyl)-1H-imidazol-2-yl]thio}methyl)-4-fluorophenyl]sulfonyl}amino)-N,N,N-trimethylpropan-1-aminium], the EC50 on h-TGR5 and on human TGR5 (h-TGR5) was below 100 nM in each case.
Take `COc1cc(C(C)(C)c2cnc(SCc3c(F)cc(S(=O)(=O)NCCCC[N+](C)(C)C)cc3F)n2-c2ccc(F)cc2)ccc1Cl` [Example 6r, 4-({[4-({[5-{1-[4-chloro-3-(methyloxy)phenyl]-1-methylethyl}-1-(4-fluorophenyl)-1H-imidazol-2-yl]thio}methyl)-3,5-difluorophenyl]sulfonyl}amino)-N,N,N-trimethylbutan-1-aminium]: the EC50 on h-TGR5 and at human TGR5 (h-TGR5) was below 100 nM in each case.
On to `COc1cc(C(C)(C)c2cnc(SCc3cc(S(=O)(=O)NCCC[N+](C)(C)C)c(F)cc3Cl)n2-c2ccc(F)cc2)ccc1Cl` [Example 7, 3-(4-Chloro-5-((5-(2-(4-chloro-3-methoxyphenyl)propan-2-yl)-1-(4-fluorophenyl)-1H-imidazol-2-ylthio)methyl)-2-fluorophenylsulfonamido)-N,N,N-trimethylpropan-1-aminium 2,2,2-trifluoroacetate], for which the EC50 on h-TGR5 and at human TGR5 (h-TGR5) was below 100 nM throughout.
On to `COc1cc(C(C)(C)c2cnc(SCc3c(F)ccc(S(=O)(=O)NCCC[N+](C)(C)C)c3F)n2-c2ccc(F)cc2)ccc1Cl` [Example 7a, 3-({[3-({[5-{1-[4-chloro-3-(methyloxy)phenyl]-1-methylethyl}-1-(4-fluorophenyl)-1H-imidazol-2-yl]thio}methyl)-2,4-difluorophenyl]sulfonyl}amino)-N,N,N-trimethylpropan-1-aminium], for which the EC50 at h-TGR5 and at human TGR5 (h-TGR5) was below 100 nM throughout.
As to `CC[N+](CC)(CC)CCCNC(=O)NS(=O)(=O)c1cc(F)c(CSc2ncc(C(C)(C)c3ccc(Cl)c(OC)c3)n2-c2ccc(F)cc2)c(F)c1` [Example 8, 3-(3-(4-((5-(2-(4-Chloro-3-methoxyphenyl)propan-2-yl)-1-(4-fluorophenyl)-1H-imidazol-2-ylthio)methyl)-3,5-difluorophenylsulfonyl)ureido)-N,N,N-triethylpropan-1-aminium 2,2,2-trifluoroacetate], the EC50 at h-TGR5 and at human TGR5 (h-TGR5) was below 100 nM throughout.
Regarding `COc1cc(C(C)(C)c2cnc(SCc3c(F)cc(S(=O)(=O)NCCC[n+]4ccccc4)cc3Cl)n2-c2ccc(F)cc2)ccc1F` [Example 9, 1-(3-(3-chloro-5-fluoro-4-((5-(2-(4-fluoro-3-methoxyphenyl)propan-2-yl)-1-(4-fluorophenyl)-1H-imidazol-2-ylthio)methyl)phenylsulfonamido)propyl)pyridinium methanesulfonate], the 50% effective concentration (EC50) at h-TGR5 and on human TGR5 (h-TGR5) was below 100 nM throughout.
In the case of `COc1cc(C(C)(C)c2cnc(SCc3c(F)cc(S(=O)(=O)N(CCC[N+](C)(C)C)CC(=O)O)cc3F)n2-c2ccc(F)cc2)ccc1Cl` [Example 12], the EC50 on h-TGR5 and on human TGR5 (h-TGR5) was below 100 nM throughout.

The EC50 is the concentration at which the effect is half-maximal.
